The values that follow come from patent US10104891B2 (priority 2014, dated 2018).

Some results are limits rather than exact numbers.

Common to all, as to format: in vivo
Assay [1] deals with Pythium graminicola. Kind of assay: Test 4: control effect against rice damping-off by the Pythium fungus (soil lavage). The note with it: 1,000 ppm, 2.5 ml test suspension drenched on contaminated soil, rice (koshihikari). Here is the method: A 10% wettable powder created according to the Pharmaceutical Formulation Example 1 was diluted with a Tween20 solution prepared to a concentration of 1/5000, then the compound of formula [1] was prepared to a concentration of 4 ppm. Further, the compound of formula [1] in Test 4 was adjusted to a concentration of 1,000 ppm.
<Test 4 Test of Control Effect Against Rice Damping-Off by the Pythium Fungus (Soil Lavage)>
Distilled water was added to the flora of Pythium graminicola cultured in bentoglass seed culture and stirred with a mixer, and adjusted the contaminated soil to 5 g of bacteria against 1 kg of soil.
In a cell tray having 31×31 mm^2 per cell, 20 ml of the contaminated soil was filled in each cell, and 3 seeds of rice chaff that has been forced to sprout (Species: koshihikari) were seeded, and 5 ml of soil was added for covering, then 2.5 ml of test suspension was drenched, and the seeds were incubated in a moist chamber adjusted to 28° C. for 72 hr to induce sprouting. Then, in a low temperature room of 5° C., the onset of disease was induced for 2 days, then the disease was nurtured for 14 days in a room of 25° C.
The soil was washed, and the apoptosis strain, growth restrained strain, and a healthy strain were measured and the onset rate was calculated by the following formula. Onset rate=[Σ(onset strain number by level×onset index)/(investigated strain×3)]×100 [Onset Index]
1: Growth restrained strain
Also, the following formula was used to compute the control value from the obtained onset index. control value={1−onset area rate at the section applied the test agent/onset area rate of untreated section}×100 Computational formula of the control value: […]

In assay [2] the test system is Pseudoperonospora cubensis. The experiment in a line: Test 2: control effect against cucumber downy mildew. The note with it: control value vs untreated section; for pest or weed control at 4 µg/mL: Pseudoperonospora cubensis, 120 h. The essentials:
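Protective test: zoospores (1.0×10^4 units/ml) misted one day after applying a 4 ppm suspension (wettable powder diluted in 1/5000 Tween20) to 2-leaf cucumber, Sagami hanjiro. After 16 hr at 22° C humid incubation, leaf lesion area read at day 5, expressed as control value versus untreated leaves.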

Assay [3] deals with Phytophthora infestans. Kind of assay: whole plant or invertebrate. The note with it: for pest or weed control at 4 µg/mL: Phytophthora infestans, in Solanum lycopersicum, 96 h, read-out: control value (Test 1).
In assay [4] the test system is Plasmopara viticola. Kind of assay: Test 3: control effect against grape downy mildew. To be noted: control value vs untreated section; for pest or weed control at 4 µg/mL: Plasmopara viticola, 120 h. The gist of the method:
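Leaf lesion area, scored 5 days after inoculation and compared with untreated plants, gives the control value. Inoculation used P. viticola zoospores (1.0×10^4 units/ml) with a 16 hr moist incubation at 22° C. It followed by one day a spray of 4 ppm compound (wettable powder in Tween20) onto Neomuscat seedlings.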

On to `Cc1cc(C(F)(F)F)nn1CC(=O)N1CCC(c2nc(C3OCc4c(F)ccc(F)c4CO3)cs2)CC1` [Compound 1-3, 4-[4-(6,9-difluoro-1,5-dihydro-3H-2,4-benzodioxepin-3-yl)-2-thiazolyl]-1-[2-[5-methyl-3-(trifluoromethyl)-1H-pyrazole-1-yl]acetyl]piperidine], for which, in assay [1], the pest or weed control at 1000 ppm is no less than 90%. Also, the pest or weed control at 4 µg/mL in assay [2], in assay [3] and in assay [4] was 100% throughout.
For the molecule `Cc1cc(C(F)(F)F)nn1CC(=O)N1CCC(c2nc(C3OCc4cccc(OS(C)(=O)=O)c4CO3)cs2)CC1` (centres unmarked) [Compound 1-6, 4-[4-(6-methylsulfonyloxy-1,5-dihydro-3H-2,4-benzodioxepin-3-yl)-2-thiazolyl]-1-[2-[5-methyl-3-(trifluoromethyl)-1H-pyrazole-1-yl]acetyl]piperidine], the pest or weed control at 1000 ppm in assay [1] was no less than 90%. Besides, the pest or weed control at 4 µg/mL in assay [2], in assay [3] and in assay [4] was 100% in each case.
`Cc1cc(C(F)(F)F)nn1CC(=O)N1CCC(c2nc(C3OCc4ccc(F)cc4CO3)cs2)CC1` (centres unmarked) [Compound 1-11, 4-[4-(7-fluoro-1,5-dihydro-3H-2,4-benzodioxepin-3-yl)-2-thiazolyl]-1-[2-[5-methyl-3-(trifluoromethyl)-1H-pyrazole-1-yl]acetyl]piperidine] gave a pest or weed control at 1000 ppm in assay [1] of no less than 90%. For the same molecule, the pest or weed control at 4 µg/mL in assay [2], in assay [3] and in assay [4] was 100% in each case.
The molecule `Cc1cc(C(F)(F)F)nn1CC(=O)N1CCC(c2nc(C3OCc4cccc(Br)c4CO3)cs2)CC1` (centres unmarked) [Compound 1-15, 4-[4-(6-bromo-1,5-dihydro-3H-2,4-benzodioxepin-3-yl)-2-thiazolyl]-1-[2-[5-methyl-3-(trifluoromethyl)-1H-pyrazole-1-yl]acetyl]piperidine] came in with a pest or weed control at 1000 ppm in assay [1] of no less than 90%. Moreover, the pest or weed control at 4 µg/mL in assay [2], in assay [3] and in assay [4] was 100% throughout.
As to `CCCCS(=O)(=O)Oc1cccc2c1COC(c1csc(C3CCN(C(=O)Cn4nc(C(F)(F)F)cc4C)CC3)n1)OC2` (centres unmarked) [Compound 1-21, 4-[4-(6-butylsulfonyloxy-1,5-dihydro-3H-2,4-benzodioxepin-3-yl)-2-thiazolyl]-1-[2-[5-methyl-3-(trifluoromethyl)-1H-pyrazole-1-yl]acetyl]piperidine], the pest or weed control at 1000 ppm in assay [1] was no less than 90%. In addition, the pest or weed control at 4 µg/mL in assay [2] stood at 100%; in assay [3] it was 90%; in assay [4], 100%.
In the case of `CCCS(=O)(=O)Oc1cccc2c1COC(c1csc(C3CCN(C(=O)Cn4nc(C(F)(F)F)cc4C)CC3)n1)OC2` (centres unmarked) [Compound 1-22, 4-[4-(6-propylsulfonyloxy-1,5-dihydro-3H-2,4-benzodioxepin-3-yl)-2-thiazolyl]-1-[2-[5-methyl-3-(trifluoromethyl)-1H-pyrazole-1-yl]acetyl]piperidine], the pest or weed control at 1000 ppm in assay [1] was no less than 90%. The pest or weed control at 4 µg/mL in assay [2], in assay [3] and in assay [4] was 100% each time.
In the case of `Cc1cc(C(F)(F)F)nn1CC(=O)N1CCC(c2nc(C3OCc4cccc(Cl)c4CO3)cs2)CC1` (centres unmarked) [Compound 1-23, 4-[4-(6-chloro-1,5-dihydro-3H-2,4-benzodioxepin-3-yl)-2-thiazolyl]-1-[2-[5-methyl-3-(trifluoromethyl)-1H-pyrazole-1-yl]acetyl]piperidine], the pest or weed control at 1000 ppm in assay [1] was no less than 90%. The pest or weed control at 4 µg/mL in assay [2], in assay [3] and in assay [4] was 100% throughout.
In assay [1], `Cc1cc(C(F)(F)F)nn1CC(=O)N1CCC(c2nc(C3OCc4c(OS(C)(=O)=O)ccc([N+](=O)[O-])c4CO3)cs2)CC1` (centres unmarked) [Compound 1-32, 4-[4-(6-methylsulfonyloxy-9-nitro-1,5-dihydro-3H-2,4-benzodioxepin-3-yl)-2-thiazolyl]-1-[2-[5-methyl-3-(trifluoromethyl)-1H-pyrazole-1-yl]acetyl]piperidine] showed a pest or weed control at 1000 ppm of no less than 90%. The pest or weed control at 4 µg/mL in assay [2], in assay [3] and in assay [4] was 100% in each case.
As for `Cc1cc(C(F)(F)F)nn1CC(=O)N1CCC(c2nc(C3OCc4cccc(O)c4CO3)cs2)CC1` (centres unmarked) [Compound 1-33, 4-[4-(6-hydroxy-1,5-dihydro-3H-2,4-benzodioxepin-3-yl)-2-thiazolyl]-1-[2-[5-methyl-3-(trifluoromethyl)-1H-pyrazole-1-yl]acetyl]piperidine], the pest or weed control at 1000 ppm in assay [1] was no less than 90%. In addition, the pest or weed control at 4 µg/mL in assay [2], in assay [3] and in assay [4] was 100% in each case.
Take `Cc1cc(C(F)(F)F)nn1CC(=O)N1CCC(c2nc(C3OCc4cccc(OC(=O)C5CC5)c4CO3)cs2)CC1` (centres unmarked) [Compound 1-34, 4-[4-(6-cyclopropylcarbonyloxy-1,5-dihydro-3H-2,4-benzodioxepin-3-yl)-2-thiazolyl]-1-[2-[5-methyl-3-(trifluoromethyl)-1H-pyrazole-1-yl]acetyl]piperidine]: the pest or weed control at 1000 ppm in assay [1] was no less than 90%. For the same molecule, the pest or weed control at 4 µg/mL in assay [2], in assay [3] and in assay [4] was 100% in each case.
Regarding `Cc1cc(C(F)(F)F)nn1CC(=O)N1CCC(c2nc(C3OCc4cccc(OS(=O)(=O)C(F)(F)F)c4CO3)cs2)CC1` (centres unmarked) [Compound 1-36, 4-[4-[6-(trifluoromethyl)sulfonyloxy-1,5-dihydro-3H-2,4-benzodioxepin-3-yl]-2-thiazolyl]-1-[2-[5-methyl-3-(trifluoromethyl)-1H-pyrazole-1-yl]acetyl]piperidine], in assay [1], the pest or weed control at 1000 ppm was no less than 90%. The pest or weed control at 4 µg/mL in assay [2], in assay [3] and in assay [4] was 100% throughout.
For the molecule `Cc1cc(C(F)(F)F)nn1CC(=O)N1CCC(c2nc(C3OCc4ccc(Cl)cc4CO3)cs2)CC1` (centres unmarked) [Compound 1-40, 4-[4-(7-chloro-1,5-dihydro-3H-2,4-benzodioxepin-3-yl)-2-thiazolyl]-1-[2-[5-methyl-3-(trifluoromethyl)-1H-pyrazole-1-yl]acetyl]piperidine], the pest or weed control at 1000 ppm in assay [1] was no less than 90%. In addition, the pest or weed control at 4 µg/mL in assay [2], in assay [3] and in assay [4] was 100% throughout.
Regarding `Cc1ccc(OS(C)(=O)=O)c2c1COC(c1csc(C3CCN(C(=O)Cn4nc(C(F)F)cc4C(F)F)CC3)n1)OC2` (centres unmarked) [Compound 1-44, 4-[4-(6-methyl-9-methylsulfonyloxy-1,5-dihydro-3H-2,4-benzodioxepin-3-yl)-2-thiazolyl]-1-[2-[3,5-bis(difluoromethyl)-1H-pyrazole-1-yl]acetyl]piperidine], the pest or weed control at 1000 ppm in assay [1] is no less than 90%. Also, the pest or weed control at 4 µg/mL in assay [2], in assay [3] and in assay [4] was 100% throughout.
Consider `Cc1cc(C(F)(F)F)nn1CC(=O)N1CCC(c2nc(C3OCc4ccc(F)c(OS(C)(=O)=O)c4CO3)cs2)CC1` (centres unmarked) [Compound 1-45, 4-[4-(7-fluoro-6-methylsulfonyloxy-1,5-dihydro-3H-2,4-benzodioxepin-3-yl)-2-thiazolyl]-1-[2-[5-methyl-3-(trifluoromethyl)-1H-pyrazole-1-yl]acetyl]piperidine], for which the pest or weed control at 1000 ppm in assay [1] was no less than 90%. The pest or weed control at 4 µg/mL in assay [2], in assay [3] and in assay [4] was 100% each time.
With `CS(=O)(=O)Oc1cccc2c1COC(c1csc(C3CCN(C(=O)CON=CC(F)(F)F)CC3)n1)OC2` (centres unmarked) [Compound 3-6], in assay [2], the “control value (Test 2)” value is 100. Further, the “control value (Test 1)” value in assay [3] (tomato late blight, control value vs untreated section) was 100. In assay [4], the “control value (Test 3)” value worked out at 100.
For the molecule `CO/C(=N\c1cc(C)ccc1C)N1CCC(c2nc(C3OCc4cccc(OS(C)(=O)=O)c4CO3)cs2)CC1` (centres unmarked) [Compound 4-1, 4-[4-(6-methylsulfonyloxy-1,5-dihydro-3H-2,4-benzodioxepin-3-yl)-2-thiazolyl]-1-[(Z)-[(2,5-dimethylphenyl)imino](methoxy)methyl]piperidine], the pest or weed control at 4 µg/mL in assay [2], in assay [3] and in assay [4] was 100% in each case.
